In this assay the test system is Ribosome. Briefly: Inhibition of ribosome peptidyl transferase site in rabbit reticulocytes assessed as inhibition of translation using firefly luciferase DNA as template at 0.8 to 80 uM after 1 hr by luciferase assay. The conditions noted are these: Oryctolagus cuniculus. The format is subcellular.

Structures are written as SMILES. Calls of active or inactive are those of the source. The rule behind the calls is not given here.

For `CCN(CC)c1ccc2c(COC(=O)N3C[C@@H](O)[C@H](OC(C)=O)[C@@H]3Cc3ccc(OC)cc3)cc(=O)oc2c1`, the inhibition entry was “Active”.

The values are drawn from ChEMBL document CHEMBL1629688, “A collection of caged compounds for probing roles of local translation in neurobiology” (Bioorg Med Chem, 2010).
